Source: article PMC9146426, “3,6′- and 1,6′-Dithiopomalidomide Mitigate Ischemic Stroke in Rats and Blunt Inflammation” (Pharmaceutics, 2022)

Molecular target: T1, cereblon (Homo sapiens, UniProt Q96SW2)
T1 construct: gene CRBN; cereblon/DDB1-CUL4A-Rbx1 complex; with DDB1-CUL4A-Rbx1
Assay: AlphaScreen bead-based cereblon binding assay (BPS Bioscience #[…]) with BRD3

T1 sequence (Q96SW2 whole entry): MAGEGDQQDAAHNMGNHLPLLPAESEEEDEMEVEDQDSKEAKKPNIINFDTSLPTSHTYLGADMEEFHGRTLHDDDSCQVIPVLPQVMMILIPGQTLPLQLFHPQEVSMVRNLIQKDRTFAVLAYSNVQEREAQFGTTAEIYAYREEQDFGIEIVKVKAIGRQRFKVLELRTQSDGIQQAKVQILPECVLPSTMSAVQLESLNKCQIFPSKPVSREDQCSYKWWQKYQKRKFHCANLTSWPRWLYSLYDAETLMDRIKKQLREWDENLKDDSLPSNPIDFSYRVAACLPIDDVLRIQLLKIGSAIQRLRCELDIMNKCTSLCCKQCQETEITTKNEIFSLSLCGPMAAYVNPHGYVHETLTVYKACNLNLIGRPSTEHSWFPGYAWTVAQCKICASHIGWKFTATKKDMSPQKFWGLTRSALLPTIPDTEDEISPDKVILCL
T1 sequence (Q16531 2-1140 partner): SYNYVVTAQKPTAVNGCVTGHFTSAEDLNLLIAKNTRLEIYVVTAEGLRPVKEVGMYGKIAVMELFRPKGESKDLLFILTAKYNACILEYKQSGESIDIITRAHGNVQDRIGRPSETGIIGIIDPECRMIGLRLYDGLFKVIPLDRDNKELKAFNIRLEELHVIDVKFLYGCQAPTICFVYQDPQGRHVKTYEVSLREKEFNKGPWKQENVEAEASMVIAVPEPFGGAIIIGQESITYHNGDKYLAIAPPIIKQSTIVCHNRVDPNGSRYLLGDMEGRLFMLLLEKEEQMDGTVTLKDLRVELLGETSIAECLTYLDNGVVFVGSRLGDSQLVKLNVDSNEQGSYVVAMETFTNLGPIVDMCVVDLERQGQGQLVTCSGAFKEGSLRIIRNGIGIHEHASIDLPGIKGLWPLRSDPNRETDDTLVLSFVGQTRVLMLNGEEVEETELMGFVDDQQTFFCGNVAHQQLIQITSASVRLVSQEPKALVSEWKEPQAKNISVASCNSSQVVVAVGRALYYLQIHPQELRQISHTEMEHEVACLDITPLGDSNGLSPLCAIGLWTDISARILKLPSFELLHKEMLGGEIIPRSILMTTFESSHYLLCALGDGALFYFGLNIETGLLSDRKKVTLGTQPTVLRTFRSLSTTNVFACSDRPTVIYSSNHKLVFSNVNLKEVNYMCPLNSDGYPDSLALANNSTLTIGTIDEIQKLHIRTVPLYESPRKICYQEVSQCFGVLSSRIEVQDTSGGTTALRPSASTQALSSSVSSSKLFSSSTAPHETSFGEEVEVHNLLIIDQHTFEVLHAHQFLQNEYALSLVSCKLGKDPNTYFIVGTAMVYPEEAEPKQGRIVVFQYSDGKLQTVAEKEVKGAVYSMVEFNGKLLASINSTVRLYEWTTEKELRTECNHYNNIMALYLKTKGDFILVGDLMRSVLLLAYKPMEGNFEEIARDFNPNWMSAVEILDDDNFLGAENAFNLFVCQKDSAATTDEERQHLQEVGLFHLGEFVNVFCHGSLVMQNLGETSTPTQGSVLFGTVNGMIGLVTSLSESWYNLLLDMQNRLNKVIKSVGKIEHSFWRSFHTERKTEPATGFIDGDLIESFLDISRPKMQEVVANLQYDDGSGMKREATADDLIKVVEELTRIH
T1 sequence (Q13619 whole entry partner): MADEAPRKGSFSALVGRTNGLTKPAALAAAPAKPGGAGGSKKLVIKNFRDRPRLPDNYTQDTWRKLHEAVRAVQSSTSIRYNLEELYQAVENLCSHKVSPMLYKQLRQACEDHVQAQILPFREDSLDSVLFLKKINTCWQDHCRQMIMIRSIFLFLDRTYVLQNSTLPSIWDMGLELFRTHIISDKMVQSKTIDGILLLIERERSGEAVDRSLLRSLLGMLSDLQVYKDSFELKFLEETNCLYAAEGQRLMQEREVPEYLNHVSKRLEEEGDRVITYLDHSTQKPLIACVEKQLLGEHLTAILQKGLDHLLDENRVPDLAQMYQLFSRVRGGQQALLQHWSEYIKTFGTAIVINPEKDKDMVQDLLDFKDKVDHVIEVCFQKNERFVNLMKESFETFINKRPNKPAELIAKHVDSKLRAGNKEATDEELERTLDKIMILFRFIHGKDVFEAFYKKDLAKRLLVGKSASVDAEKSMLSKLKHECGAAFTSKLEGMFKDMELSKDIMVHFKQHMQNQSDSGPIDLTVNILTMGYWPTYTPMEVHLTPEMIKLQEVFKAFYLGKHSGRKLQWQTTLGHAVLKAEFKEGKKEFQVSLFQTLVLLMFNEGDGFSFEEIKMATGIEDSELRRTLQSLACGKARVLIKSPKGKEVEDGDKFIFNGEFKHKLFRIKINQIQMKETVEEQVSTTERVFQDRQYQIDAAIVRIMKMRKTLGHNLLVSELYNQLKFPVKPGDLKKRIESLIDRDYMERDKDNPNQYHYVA
T1 sequence (P62877 whole entry partner): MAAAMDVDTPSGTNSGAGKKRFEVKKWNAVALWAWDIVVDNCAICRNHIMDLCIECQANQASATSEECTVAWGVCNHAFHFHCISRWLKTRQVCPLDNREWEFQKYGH

IC50	Structure (SMILES)
1520 nM	Nc1cccc2c1C(=O)N(C1CCC(=S)NC1=O)C2=S (centres unmarked) [1,6′-DP, 1,6′-dithiopomalidomide]
940 nM	Nc1cccc2c1C(=S)N(C1CCC(=S)NC1=O)C2=O (centres unmarked) [3,6′-DP, 3,6′-dithiopomalidomide]
